The text below walks through data of patent US10414763B2 (CANCER RESEARCH TECHNOLOGY LIMITED, priority 2014, dated 2019).

The target in the assay is T1, full-length human PKCι (Homo sapiens, UniProt P41743).
T1 construct: Recombinant, full-length human PKCι expressed in Sf21 insect cells is also commercially available; purchased EMD Millipore; host or cells: Sf21 insect cells (baculovirus)
T1 sequence (P41743 1-596): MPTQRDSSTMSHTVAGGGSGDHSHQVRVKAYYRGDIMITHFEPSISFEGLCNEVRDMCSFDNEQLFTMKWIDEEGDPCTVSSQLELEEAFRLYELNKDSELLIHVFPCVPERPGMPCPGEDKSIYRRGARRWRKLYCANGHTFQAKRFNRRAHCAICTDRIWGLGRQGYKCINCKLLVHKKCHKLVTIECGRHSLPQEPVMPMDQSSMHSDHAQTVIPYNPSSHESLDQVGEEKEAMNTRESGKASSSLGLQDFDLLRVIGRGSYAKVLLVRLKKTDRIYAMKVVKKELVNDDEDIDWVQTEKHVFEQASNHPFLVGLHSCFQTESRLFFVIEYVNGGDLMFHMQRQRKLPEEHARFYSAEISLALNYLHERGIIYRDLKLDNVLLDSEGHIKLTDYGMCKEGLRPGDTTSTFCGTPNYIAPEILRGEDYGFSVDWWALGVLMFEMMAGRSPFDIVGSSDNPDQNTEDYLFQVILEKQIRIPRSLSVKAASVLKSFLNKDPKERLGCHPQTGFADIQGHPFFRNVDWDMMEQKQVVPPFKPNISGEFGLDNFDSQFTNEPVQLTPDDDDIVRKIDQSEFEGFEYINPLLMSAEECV
In words: PKCι IC50 IMAP fluorescence polarisation assay, full-length enzyme, 150 μM ATP. The format is biochemical. The settings on record: read-out: IC50 in IMAP assay against full length PKCi at 150 μM ATP. A digest of the protocol: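 IMAP fluorescence polarisation kinase assay: 15 pM baculovirus-expressed human PKCiota with 100 nM FAM-pseudosubstrate peptide and 150 μM ATP, 1 h at 25 °C. IMAP detection reagent then 2 h at 25 °C before FP measurement. Inhibition referenced to no-compound and no-enzyme controls for IC50 fitting.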
For orientation: Fluorescence polarisation rises when a labelled molecule tumbles more slowly, as on binding a larger partner.
`FC(F)(F)c1cc2c(-c3nc(N4CC[C@H]5NCCC[C@H]54)c4c(C5CCC5)cncc4n3)ccnc2[nH]1` (racemic) [Example 80, (±)-5-Cyclobutyl-4-(3,7-cis)-octahydro-pyrrolo[3,2-b]pyridin-1-yl-2-(2-trifluoromethyl-1H-pyrrolo[2,3-b]pyridin-4-yl)-pyrido[3,4-d]pyrimidine]: the IC50 (commonly the concentration that inhibits the measured activity by half) is less than 100 nM.
Consider `CN(c1nc(-c2ccnc(Nc3cc4ccccn4n3)c2)nc2cncc(C3CC3)c12)C1CCNCC1(C)C` (stereo not drawn) [Example 36, {5-Cyclopropyl-2-[2-(pyrazolo[1,5-a]pyridin-2-ylamino)-pyridin-4-yl]-pyrido[3,4-d]pyrimidin-4-yl}-(3,3-dimethyl-piperidin-4-yl)-methyl-amine], for which the IC50 was less than 100 nM.
With `CC1(C)CNCC[C@H]1Nc1nc(-c2ccnc(Nc3cc4ccccn4n3)c2)nc2cncc(C3CCC3)c12` [Example 379, {5-Cyclobutyl-2-[2-(pyrazolo[1,5-a]pyridin-2-ylamino)-pyridin-4-yl]-pyrido[3,4-d]pyrimidin-4-yl}-((R)-3,3-dimethyl-piperidin-4-yl)-amine] the figure was less than 100 nM; with `CNC(=O)c1cc2c(-c3nc(N4CCNCC4)c4c(C5CC5)cncc4n3)ccnc2[nH]1` [Example 79, 4-(5-Cyclopropyl-4-piperazin-1-yl-pyrido[3,4-d]pyrimidin-2-yl)-1H-pyrrolo[2,3-b]pyridine-2-carboxylic acid methylamide], less than 100 nM.
With `OC1CNCCCC1Nc1nc(-c2ccnc3[nH]c4ccccc4c23)nc2cncc(C3CCC3)c12` (stereo not drawn) [Example 73, 4-[5-Cyclobutyl-2-(9H-pyrido[2,3-b]indol-4-yl)-pyrido[3,4-d]pyrimidin-4-ylamino]-azepan-3-ol] the figure was less than 100 nM.
In the case of `C[C@H]1CNCC[C@@H]1Nc1nc(-c2ccnc3[nH]c(C(F)(F)F)cc23)nc2cncc(C3CCC3)c12` (racemic) [Example 262], the half-maximal inhibitory concentration (IC50) is less than 100 nM.
Under `CC1(C)CNCCC1Nc1nc(-c2ccnc(Nc3ncccc3F)c2)nc2cncc(C3CCC3)c12` (stereo not drawn) [Example 70, {5-Cyclobutyl-2-[2-(3-fluoro-pyridin-2-ylamino)-pyridin-4-yl]-pyrido[3,4-d]pyrimidin-4-yl}-(3,3-dimethyl-piperidin-4-yl)-amine] stands less than 100 nM; under `O[C@]12CCN(c3nc(-c4ccnc5[nH]c(C(F)(F)F)cc45)nc4cncc(C5CC5)c34)[C@H]1CCNC2` (racemic) [Example 104, (±)-(3aS,7aS)-1-[5-Cyclopropyl-2-(2-trifluoromethyl-1H-pyrrolo[2,3-b]pyridin-4-yl)-pyrido[3,4-d]pyrimidin-4-yl]-octahydro-pyrrolo [3,2-c]pyridin-3a-ol], less than 100 nM.
With `FC(F)(F)c1cc2c(-c3nc(N4CC[C@H]5NCC[C@H]54)c4c(C5CCC5)cncc4n3)ccnc2[nH]1` (racemic) [Example 54, (±)-5-Cyclobutyl-4-(3,6-cis)-hexahydro-pyrrolo[3,2-b]pyrrol-1-yl-2-(2-trifluoromethyl-1H-pyrrolo[2,3-b]pyridin-4-yl)-pyrido[3,4-d]pyrimidine] the figure was less than 100 nM; with `Clc1ccccc1-c1cc2c(-c3nc(N[C@H]4[C@@H]5CC[C@H]4CNC5)c4c(C5CC5)cncc4n3)ccnc2[nH]1` [Example 25, (1R,5S,8R)-3-Aza-bicyclo[3.2.1]oct-8-yl-{2-[2-(2-chloro-phenyl)-1H-pyrrolo[2,3-b]pyridin-4-yl]-5-cyclopropyl-pyrido[3,4-d]pyrimidin-4-yl}-amine], 100 to 1000 nM; with `CN(c1nc(-c2ccnc3[nH]c4ccccc4c23)nc2cncc(C3CCC3)c12)C1CC(N)C1` (stereo not drawn) [Example 74, N-[5-Cyclobutyl-2-(9H-pyrido[2,3-b]indol-4-yl)-pyrido[3,4-d]pyrimidin-4-yl]-N-methyl-cyclobutane-1,3-diamine], less than 100 nM.
Consider `Cc1cc2c(-c3nc(N(C)C4CCNCC4(C)C)c4c(C5CCC5)cncc4n3)ccnc2[nH]1` (stereo not drawn) [Example 116, [5-Cyclobutyl-2-(2-methyl-1H-pyrrolo[2,3-b]pyridin-4-yl)-pyrido[3,4-d]pyrimidin-4-yl]-(3,3-dimethyl-piperidin-4-yl)-methyl-amine], for which the IC50 was less than 100 nM.
For the molecule `C[C@@H]1CNCC[C@H]1Nc1nc(-c2ccnc(Nc3nc(F)cc(F)c3F)c2)nc2cncc(C3CCC3)c12` (racemic) [Example 291, {5-Cyclobutyl-2-[2-(3,4,6-trifluoro-pyridin-2-ylamino)-pyridin-4-yl]-pyrido[3,4-d]pyrimidin-4-yl}-(rac-(3R,4R)-3-methyl-piperidin-4-yl)-amine], the IC50 is less than 100 nM.
Turning to `CC1(C)CNCC[C@@H]1Nc1nc(-c2ccnc(Nc3ncccc3F)c2)nc2cncc(C3CCC3)c12` [Example 210, {5-Cyclobutyl-2-[2-(3-fluoro-pyridin-2-ylamino)-pyridin-4-yl]-pyrido[3,4-d]pyrimidin-4-yl}-((S)-3,3-dimethyl-piperidin-4-yl)-amine], the IC50 is less than 100 nM.
With `OC[C@@H]1CNCCN1c1nc(-c2ccnc3[nH]c(C(F)(F)F)cc23)nc2cncc(C3CC3)c12` [Example 4, {(S)-1-[5-Cyclopropyl-2-(2-trifluoromethyl-1H-pyrrolo[2,3-b]pyridin-4-yl)-pyrido[3,4-d]pyrimidin-4-yl]-piperazin-2-yl}-methanol] the figure was 100 to 1000 nM; with `FC(F)(F)c1cc2c(-c3nc(N4CC[C@H]5CNC[C@H]54)c4c(C5CC5)cncc4n3)ccnc2[nH]1` [Example 20, 5-Cyclopropyl-4-(3aS,6aS)-hexahydro-pyrrolo[3,4-b]pyrrol-1-yl-2-(2-trifluoromethyl-1H-pyrrolo[2,3-b]pyridin-4-yl)-pyrido[3,4-d]pyrimidine], less than 100 nM.
For the molecule `Clc1ccccc1-c1cc2c(-c3nc(N4CCC5NCCC54)c4c(C5CC5)cncc4n3)ccnc2[nH]1` (stereo not drawn) [Example 128, 2-[2-(2-Chloro-phenyl)-1H-pyrrolo[2,3-b]pyridin-4-yl]-5-cyclopropyl-4-(hexahydro-pyrrolo[3,2-b]pyrrol-1-yl)-pyrido[3,4-d]pyrimidine], the concentration for half-maximal inhibition (IC50) is less than 100 nM.
With `N[C@H]1C[C@@H](Nc2nc(-c3ccnc4[nH]c5ccccc5c34)nc3cncc(C(F)(F)F)c23)C1` [Example 218, cis-N-[2-(9H-Pyrido[2,3-b]indol-4-yl)-5-trifluoromethyl-pyrido[3,4-d]pyrimidin-4-yl]-cyclobutane-1,3-diamine] the figure was 100 to 1000 nM.
As to `CC1(C)CNCCC1Nc1nc(-c2ccnc(Nc3cc(F)ccn3)c2)nc2cncc(C3CC3)c12` (stereo not drawn) [Example 50, {5-Cyclopropyl-2-[2-(4-fluoro-pyridin-2-ylamino)-pyridin-4-yl]-pyrido[3,4-d]pyrimidin-4-yl}-(3,3-dimethyl-piperidin-4-yl)-amine], the IC50 is less than 100 nM.
Under `CC1(C)CNCC[C@@H]1Nc1nc(-c2ccnc3[nH]c(C(F)(F)F)cc23)nc2cncc(C3CC3)c12` [Example 227, [5-Cyclopropyl-2-(2-trifluoromethyl-1H-pyrrolo[2,3-b]pyridin-4-yl)-pyrido[3,4-d]pyrimidin-4-yl]-((S)-3,3-dimethyl-piperidin-4-yl)-amine] stands less than 100 nM; under `Fc1cc(F)c(Nc2cc(-c3nc(N4CCC5NCCCC54)c4c(C5CCC5)cncc4n3)ccn2)nc1F` (stereo not drawn) [Example 123, {4-[5-Cyclobutyl-4-(octahydro-pyrrolo[3,2-b]pyridin-1-yl)-pyrido[3,4-d]pyrimidin-2-yl]-pyridin-2-yl}-(3,5,6-trifluoro-pyridin-2-yl)-amine], less than 100 nM.
